Consider one compound from patent US11173144B2, “Adrenergic receptor modulating compounds and methods of using the same” (The Board of Trustees of the Leland Stanford Junior …, priority 2016, dated 2021).

The target in experiment [1] is T1, ADRB1 (Homo sapiens (Human), UniProt P08588). The experiment can be described thus: β-arrestin assay (PathHunter enzyme fragment complementation, CHO-K1-ADRB1 cells). The experiment is classed as cell-based. As to conditions: Table 4. The method, then:
Pharmacological activity of compounds in the β-arrestin pathway mediated by ADRB1 are evaluated using an enzyme fragment complementation method with a β-galactosidase functional reporter. An engineered CHO-K1-ADRB1 PathHunter cell line (DiscoveRx) is used in the assay. In this cell line, enzyme acceptor (β-galactosidase fragment) is fused to β-arrestin and enzyme donor (β-galactosidase fragment) is fused to the ADRB1. Thus, activation of the ADRB1 stimulates binding of β-arrestin to the ProLink-tagged ADRB1 and forces complementation of the two enzyme fragments, resulting in the formation of an active β-galactosidase enzyme. Briefly, CHO-K1-ADRB1 PathHunter cell lines are plated in a total volume of 20 μL cell plating reagent (DiscoveRx, 93-0563R0A) at a density of 2,500 cells/well into 384 well microplates and incubated overnight at 37° C. in 5% CO2. […] Chemiluminescent signal is then read with a PerkinElmer Envision™ instrument. The results are expressed as a percent of the maximum efficacy achieved with isoproterenol.
Effects of compounds on β-arrestin signaling pathways are determined using CHO cells stably expressing human β1-adrenergic receptors or human β2-adrenergic receptors with PathHunter® β-Arrestin GPCR assay system (DiscoveRx). In this system, adrenergic receptor is fused in frame with the small enzyme fragment ProLink™ and co-expressed in cell stably expressing at fusion protein of β-arrestin and the larger, N-terminal deletion mutant of β-galactosidase enzyme. Activation of the adrenergic receptor stimulates binding of β-arrestin to the ProLink-tagged receptor and forces complementation of the two enzyme fragments, resulting in the formation of an active β-gal enzyme. This interaction leads to an increase in enzyme activity that can be measured using chemiluminescent detection reagents. The effects of compounds on β-arrestin signaling pathways are determined 90 minutes after incubating the cells with the test compounds.

In experiment [2] the target is T1, ADRB1. Description: cAMP assay (homogenous time-resolved fluorescence) in HEK-293 cells stably expressing human recombinant ADRB1. Format: cell-based. As to conditions: Table 4. How it is done:
Pharmacological effects of compounds at the cAMP pathway mediated by ADRB1 are evaluated by measuring cAMP production using the homogenous time-resolved fluorescence detection method with HEK-293 cells stably expressing human recombinant ADRB1. Briefly, cells are suspended in HBSS buffer completed with 20 mM HEPES (pH 7.4) and 500 μM IBMX (3-isobutyl-1-methylxanthine) and distributed at a density of 3×10^3 cells/well. […] The results are expressed as a percent of the maximum efficacy achieved with isoproterenol. Pharmacological effects of compounds at the cAMP pathway mediated by ADRB2 and ADRB3 are measured as described above using CHO cells stably expressing human recombinant ADRB2 and human SK-N-MC neurotumor cells endogenously expressing ADRB3, respectively.
After 30 minute incubation with compounds, the cells are lysed and the fluorescence donor (Europium-chelated-labeled cAMP tracer; Eu-cAMP tracer) and fluorescence acceptor (cAMP-specific monoclonal antibodies labeled with the ULight™ dye) are added. […] The results are expressed as a percent of the control response to 10 μM isoproterenol. For subtype selectivity determination, same procedure is performed using Chinese hamster ovary (CHO) cells stably expressing human β2-adrenergic receptors or SK-N-MC human neuroblastoma cell line expressing β3-adrenergic receptors.
ADRB1 EC50 from functional assay (nM)^a, Determined using the homogenous time-resolved fluorescence detection method with HEK-293 cells stably expressing human recombinant ADRB1. ADRB2 IC50 from binding assay(nM)^b, Determined using the Tag-lite Adrenoceptor Beta2 receptor ligand binding assay.

T1 sequence (P08588 whole entry, the tested form may be a part): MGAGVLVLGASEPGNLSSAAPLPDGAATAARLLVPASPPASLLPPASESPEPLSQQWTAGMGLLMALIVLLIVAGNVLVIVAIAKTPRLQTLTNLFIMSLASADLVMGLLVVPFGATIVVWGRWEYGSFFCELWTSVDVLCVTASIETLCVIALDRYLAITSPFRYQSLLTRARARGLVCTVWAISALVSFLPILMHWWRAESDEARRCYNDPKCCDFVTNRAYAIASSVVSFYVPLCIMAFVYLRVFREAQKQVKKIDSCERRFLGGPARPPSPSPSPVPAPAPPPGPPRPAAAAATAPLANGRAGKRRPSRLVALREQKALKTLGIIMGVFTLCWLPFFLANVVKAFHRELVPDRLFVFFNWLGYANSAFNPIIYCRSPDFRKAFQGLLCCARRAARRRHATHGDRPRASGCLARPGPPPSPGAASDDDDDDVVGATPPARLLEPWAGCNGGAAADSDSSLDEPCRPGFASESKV

Turning to `COc1ccccc1OCCNC[C@H](O)COc1ccc(O)cc1` [Compound 43], the “β-arrestin pathway % Iso max” value at ADRB1 [1] (percent efficacy compared to the maximum response achieved with isoproterenol) came to 18.3%. The EC50 at ADRB1 [1] (read-out: β-arrestin pathway ADRB1 EC50) and at ADRB1 [2] (read-out: cAMP pathway ADRB1 EC50) was 10 to 100 nM throughout. Besides, the Emax at ADRB1 [2] (HEK293, 0.5 h, percent efficacy compared to the maximum response achieved with isoproterenol, read-out: cAMP pathway % Iso max) was 83.3 ± 15.7%.
